# From patent publication US20240165272A1, “Liver-targeted fluorescence/photoacoustic dual-modal probe for early detecting drug-induced hepatic inflammation and autoimmune hepatitis” (BEIJING UNIVERSITY OF TECHNOLOGY, priority 2022, published 2024)
# Assays:
# [1] = system: mouse model of drug-induced hepatic inflammation; assay: Fluorescence/photoacoustic dual-modal imaging of drug-induced (APAP) hepatic inflammation; format: in vivo, Balb/c female mice
# Method: In order to visually detect hepatic O2·^− concentration and drug-induced hepatic inflammation by fluorescence/photoacoustic dual-modal imaging, Balb/c female mice were intraperitoneally injected with overdose of APAP (300 mg/Kg) to cause drug-induced hepatic inflammation, and PBS injected mice served as the control group. The probe hCy-Tf-CA (50 μM, 100 μL) were administrated intravenously for in vivo fluorescence/photoacoustic dual-modal imaging. Images at predetermined time points were recorded on IVIS imaging system (Perkin Elmer, λex=675 nm, λem=760 nm) and InVision 256-TF imaging system (iThera Medical, λex=710 nm).
# [2] = Photoacoustic response of hCy-Tf-CA to O2·^−; settings: probe 10 μM, O2·^− 100 μM, 10 min
# Method: (§1) 10 μL of probe stock solution (1 mM) was added to 1 mL of ethanol-phosphate buffer solution (ethanol/PBS=1/1, v/v, pH=7.4). To characterize the responsiveness of hCy-Tf-CA, 40 μL O2·^− stock solution (2.5 mM) was added to above solution.
# The reaction system was prepared under the same experimental conditions. […] The photoacoustic signal of hCy-Tf-CA only at 710 nm is very weak (FIG. 3).
# Under the same experimental conditions, 10 μL of probe stock solution (1 mM) was added to 1 mL of ethanol-phosphate buffer solution, the O2·^− titration experiment then was carried out and the photoacoustic intensity at 710 nm were tested 10 minutes later.
# HepG2 cells [3] = assay: Biocompatibility study, CCK-8 assay; format: cell-based; settings: 24 h exposure to 10 μM
# Method: Inspired by the excellent responsiveness of the probe hCy-Tf-CA to O2·^−, its biocompatibility and potential for further applications in living cells were assessed. HepG2 cells were plated in a 96-well plates at […] and incubated overnight in the cell incubator. Then the cells were washed with culture medium and incubated with various concentrations of hCy-Tf-CA (1, 2, 4, 8, 10 μM) at 37° C. for 24 h. After removing the above solution, CCK-8 reagent diluted with culture medium was added to each well and incubated at 37° C. for 60 min. Finally, the absorbance was finally measured at 450 nm by a microplate reader. Cell viability was calculated using the following formula:
# Calculation of cell viability: Cell viability (%)=(Aexperimental group−Ablank group)/(Acontrol group−Ablank group)×100%.
# [4] = Selective response: fluorescence against potential interferents; settings: probe 10 μM
# Method: The specificity of hCy-Tf-CA was determined against various potential interferents (Na^+, K^+, Ca^2+, Mg^2+, Zn^2+, Cu^2+, HS^−, HClO, H2O2, ·OH, ONOO^−, glucose, glutathione, cysteine, vitamin C, nitroreductase, alkaline phosphatase, β-galactosidase and leucine aminopeptidase). Under the same experimental conditions, 10 μL of probe stock solution (1 mM) was added to 1 mL of ethanol-phosphate buffer solution. Then stock solutions of various potential interferents were respectively added to above solution, then the fluorescence intensity at 730 nm was tested. […] Therefore, these potential interferents barely effect on the selective response to O2·^−, implying that the probe hCy-Tf-CA prepared by the invention has good selectivity.
# [5] = Fluorescence response of hCy-Tf-CA to O2·^− in ethanol-phosphate buffer
# Method: as §1
# The reaction system was prepared under the same experimental conditions. […] That is due to the nucleophilic O2·^− cleavage of trifluoromethonium sulfonate, which restored the strong electron-donating phenol and it-conjugation on the fluorophore. […] The probe hCy-Tf-CA is an enhanced fluorescence probe.
# Under the same experimental conditions, 10 μL of probe stock solution (1 mM) was added to 1 mL of ethanol-phosphate buffer solution, the O2·^− titration experiment was then carried out. The fluorescence intensity at 730 nm were tested 10 minutes later. […] (FIGS. 4 and 5).
# HepG2 cells [6] = assay: Fluorescence imaging of endogenous O2·^− in HepG2 cells; format: cell-based
# Method: To evaluate the capacity of hCy-Tf-CA to image O2·^− fluctuation in living cells, HepG2 cells were plated in a glass-bottom dish for 24 h to 80% density before the experiment. Cell fluorescence imaging of hCy-Tf-CA was divided into five groups. In the first group, hCy-Tf-CA (10 μM) was incubated with cells for 30 min. In the second group, cells were pretreated with lipopolysaccharide (LPS, 1 μg/mL) and interferon-gamma (IFN-γ, 50 ng/mL) for 12 h, then washed twice with PBS buffer before incubating with hCy-Tf-CA (10 μM) for 30 min. In the third group, cells were pretreated with LPS (1 μg/mL), IFN-γ (50 ng/mL) and 2,2,6,6-tetramethylpiperidine-N-oxyl (TEMPO, 300 μM) for 12 h, then washed twice with PBS buffer before incubating with hCy-Tf-CA (10 μM) for 30 min. In the fourth and fifth groups, cells were pretreated with H2O2 or Na2SO3 (100 μM) for 30 min, then washed twice with PBS buffer before incubating with hCy-Tf-CA (10 μM) for 30 min. The cells were washed 3 times with PBS buffer before cell imaging. Fluorescence images of the cells were captured by a Nikon AX R microscope with DAPI channel (λex'404 nm, λem=425-475 nm) and Cy5.5 channel (λex=639 nm, λem=663-738).
# [7] = system: mouse model of autoimmune hepatitis; assay: Fluorescence/photoacoustic dual-modal imaging of autoimmune hepatitis (Con A); format: in vivo, Balb/c female mice
# Method: In order to visually detect autoimmune hepatitis by fluorescence/photoacoustic dual-modal imaging, Balb/c female mice were intravenously injected with a single dose Con A (20 mg/Kg, dissolved in 100 μL PBS) for 2 h to induce early autoimmune hepatitis, and the remaining mice were treated with PBS solution as controls. hCy-Tf-CA was then intravenously injected into mice for in vivo imaging, and representative NIRF/PA dual-modal images of different treated mice were recorded at chosen times. Images at predetermined time points were recorded on IVIS imaging system (Perkin Elmer, λex=675 nm, λem=760 nm) and InVision 256-TF imaging system (iThera Medical, λex=710 nm).
smiles,measurement,setting,value
C[C@H](CCC(=O)NCCC[N+]1=C(/C=C/C2=C3Oc4cc(OS(=O)(=O)C(F)(F)F)c(Cl)cc4C=C3CCC2)C(C)(C)c2c1ccc1ccccc21)[C@H]1CC[C@H]2[C@@H]3[C@H](O)C[C@@H]4C[C@H](O)CC[C@]4(C)[C@H]3C[C@H](O)[C@]12C [hCy-Tf-CA],"ex vivo hepatic fluorescence signal, APAP-treated mice versus health mice",[1]; 2 h after intravenous administration,obviously higher
same,ex vivo organ distribution of fluorescence signal,"[1]; 2 h after intravenous administration, liver versus heart, spleen, lung and kidney",mainly located in the liver
same,"in vivo fluorescence signal intensity, APAP-treated mice versus control mice","[1]; 2 h post-injection, probe 50 μM 100 μL i.v., APAP 300 mg/Kg i.p.",significantly higher
same,"photoacoustic signal in the liver, APAP-treated mice versus healthy mice","[1]; λex=710 nm, cross-sectional images",significantly higher
same,photoacoustic signal enhancement at 710 nm after treatment with O2·^−,[2],7 fold
same,cell viability,HepG2 cells [3],more than 90%
same,fluorescence response to O2·^− in the selectivity test,[4]; 730 nm,significant response
same,fluorescence response at 730 nm to potential interferents,"[4]; analytes 100 μM, enzyme 0.1 U·mL^−1",barely respond
same,O2·^− concentration at which fluorescence intensity reached a plateau,"[5]; probe 10 μM, 10 min, at 740 nm as printed",100 µM
same,fluorescence intensity at 730 nm increase compared with probe alone,"[5]; probe 10 μM, O2·^− 100 μM, 10 min, λex=680 nm, ethanol/PBS=1/1, pH=7.4",17 fold
same,fluorescence intensity increase after reaction with O2·^−,[5]; summary statement,17 times
same,intracellular fluorescence after LPS/IFN-γ in the presence of TEMPO,"HepG2 cells [6]; HepG2, LPS/IFN-γ plus TEMPO 300 μM for 12 h, probe 10 μM 30 min",largely suppressed
same,"intracellular fluorescence, normal conditions","HepG2 cells [6]; HepG2, probe 10 μM, 30 min, no pretreatment",weak fluorescence
same,fluorescence fluctuations in H2O2-treated or SO3^2−-treated cells,"HepG2 cells [6]; HepG2 pretreated with H2O2 or Na2SO3 100 μM for 30 min, probe 10 μM 30 min",negligible
same,intracellular fluorescence intensity after LPS/IFN-γ,"HepG2 cells [6]; HepG2 pretreated with LPS 1 μg/mL and IFN-γ 50 ng/mL for 12 h, probe 10 μM 30 min",significantly increased
same,in vivo fluorescence signal intensity in the liver region of Con A-treated mice over time,"[7]; Con A 20 mg/Kg i.v. for 2 h, probe i.v.",gradually enhanced
same,"rate of increase of hepatic photoacoustic signal, Con A-treated mice versus control mice",[7]; after injection of probe,increased faster
same,"photoacoustic signal in the liver, Con A-treated mice versus healthy mice","[7]; at 2 h, λex=710 nm",obviously higher
same,location of fluorescence signals (ex vivo),[7]; both groups (Con A-treated and control),mainly located in the liver
same,"ex vivo fluorescence signals, Con A-treated mice versus control mice","[7]; mouse, in vivo",apparently brighter
